In patent publication US7348328B2, “MCH antagonists for the treatment of obesity” (Schering Corporation, priority 2001, dated 2008):
Where two headings read alike, the source gives them in different places.

Target: T1, MCH receptor (Homo sapiens, UniProt Q99705)
T1 construct: expressed in transfected cells; host or cells: CHO cells (membranes)
Test: MCH Receptor Binding Assay
Protocol: MCH Receptor Binding Assay:
Membranes from CHO cells expressing the MCH receptor were prepared by lysing cells with 5 mM HEPES for 15 min at 4C. Cell lysates were centrifuged ([…], 15 min) and the pellet was resuspended in 5 mM HEPES. For each 96-well plate (Microlite, Dynex Technologies), 1 mg of cell membranes were incubated with 10 mg of wheat germ agglutinin SPA beads (Amersham) for 5 min at 4 C. in a volume of 10 ml of binding buffer (25 mM HEPES, 10 mM MGCl2, 10 mM NaCl, 5 mM MnCl2, 0.1% BSA). The membrane/bead mixture was centrifuged (1500×g, 3.5 min), the supernatant was aspirated, and the pellet was resuspended in 10 ml binding buffer. The centrifugation, aspiration and resuspension were then repeated. […] Nonspecific binding was determined by including 1 μM MCH in the binding reaction. The binding reaction was incubated at room temperature for 2 h. Plates were then analyzed in a TOPCOUNT microplate scintillation counter (Packard). Data was analyzed and Ki values were determined using GraphPad Prim.

[1] = Table 1b, preferred compounds, read-out: MCH R1 Ki
[2] = Binding Activity, membranes from CHO cells expressing the MCH receptor, [125I]-MCH, read-out: MCH Ki

T1 sequence (Q99705 whole entry): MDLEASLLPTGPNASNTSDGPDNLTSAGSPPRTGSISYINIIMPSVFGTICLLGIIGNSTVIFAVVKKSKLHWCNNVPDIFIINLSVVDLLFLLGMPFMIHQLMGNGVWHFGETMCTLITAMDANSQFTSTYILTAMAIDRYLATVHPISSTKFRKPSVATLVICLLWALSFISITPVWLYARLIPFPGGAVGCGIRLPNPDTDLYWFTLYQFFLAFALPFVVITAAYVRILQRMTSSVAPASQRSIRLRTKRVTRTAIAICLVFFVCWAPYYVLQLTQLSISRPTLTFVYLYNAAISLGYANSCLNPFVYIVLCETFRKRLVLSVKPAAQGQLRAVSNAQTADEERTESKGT

SMILES	Ki [1]	Ki [2]
CC(=O)Nc1cccc([C@@]23CC[C@@H](N(CCCN4CCN(C)CC4)C(=O)Nc4ccc(F)c(Cl)c4)CC2C3)c1 (some centres unmarked)	0.9 nM	
O=C(Nc1ccc(F)c(F)c1)N(CCCN1CCCC1)[C@@H]1CC[C@@]2(c3cccc(-c4ncc[nH]4)c3)CC2C1 (some centres unmarked)	5.4 nM	
N#Cc1cccc([C@@]23CCC(N(CCN4CC[C@@H](O)C4)C(=O)Nc4ccc(F)c(Cl)c4)[C@@H]2C3)c1 (some centres unmarked) [Example 190]		13 nM
CN1CCN(CCCN(C(=O)Nc2ccc(F)c(C(F)(F)F)c2)[C@@H]2CC[C@@]3(c4ccc(C#N)cc4)CC23)CC1 (some centres unmarked)	3 nM	
CCCN1CCN(CCN(C(=O)Nc2ccc(F)c(C(F)(F)F)c2)[C@@H]2CC[C@]3(c4cccc(C#N)c4)C[C@H]23)CC1 [Example 207]		22 nM
CN1CCN(CCCCN(C(=O)Nc2ccc(F)c(C(F)(F)F)c2)[C@@H]2CC[C@]3(c4cccc(C#N)c4)C[C@H]23)CC1 [Example 226]		2.2 nM

Next, values leading:

Ki [1]	Ki [2]	SMILES
15 nM		CN1CCN(CCCN(C(=O)Nc2ccc(F)c(Cl)c2)[C@@H]2CC[C@]3(c4cccc(Cl)c4)C[C@H]23)CC1
3 nM		CN(C)CCN(C(=O)Nc1ccc(Cl)c(Cl)c1)C1CC=C(c2cccc(C#N)c2)CC1 (centres unmarked)
	18 nM	N#Cc1cccc([C@]23CC[C@@H](N(CCN4CCCC4)C(=O)Nc4ccc(F)c(Cl)c4)[C@H]2C3)c1 [Example 189]
2.1 nM		CC(C)N(CCN(C(=O)Nc1cccc(F)c1)[C@H]1CC[C@]2(c3cccc(C#N)c3)CC2C1)C(C)C (some centres unmarked)
10.2 nM		CC(C)N(CCF)CCN(C(=O)Nc1cc(Cl)nc(Cl)c1)[C@@H]1CC[C@@]2(c3cccc(C#N)c3)CC2C1 (some centres unmarked)
